From patent US6642216B2, “Isoprenoid pathway inhibitors for stimulating bone growth” (ZymoGenetics Corporation, priority 1996, dated 2003)

How the values were obtained:
neonatal mouse calvaria = experiment: Neonatal mouse calvaria assay (in vitro bone formation); format: cell-based; set-up: Osteoblast Number, % increase over vehicle control / New Bone Area, % increase over vehicle control: concentration or dose not given beside the values
Experimental: Briefly, four days after birth, the front and parietal bones of ICR Swiss white mouse pups are removed by microdissection and split along the sagittal suture.
Three μm sections of the calvaria are prepared. Representative sections are selected for histomorphometric assessment of bone formation or bone resorption. Bone changes are measured on sections cut 200 μm apart. Osteoblasts and osteoclasts are identified by their distinctive morphology.
Selected compounds and appropriate controls were assayed in vitro (ex vivo) for bone formation activity (described above in “Neonatal Mouse Calvaria Assay (in vitro)”). Histomorphometrical assessments of ex vivo calvaria were carried out using an OsteoMetrics bone morphometry measurement program, according to the manufacturer's instructions. Measurements were determined using either a 10- or 20-fold objective with a standard point counting eyepiece graticule.
New bone formation was determined (using a 10× objective) by measuring the new bone area formed in one field in 3 representative sections of each bone (4 bones per group). Each measurement was carried out ½ field distance from the end of the suture. Both total bone and old bone area were measured. Data were expressed as new bone area in mm^2.
Osteoblast numbers were determined by point counting. The number of osteoblast cells lining the bone surface on both sides of the bone were counted in one field using a 20× objective. Data were expressed as osteoblast numbers/mm of bone surface.
The results were calculated as new bone area in mm^2×10^−3, as above.

[1] = tested on: ICR Swiss white mice calvaria; experiment: In vivo murine calvarial bone growth assay; set-up: species or system mouse
Experimental: Male ICR Swiss white mice, aged 4-6 weeks and weighing 13-26 gm, are employed, using 4-5 mice per group. The calvarial bone growth assay is performed as described in PCT application WO 95/24211, incorporated by reference. Briefly, the test compound or appropriate control vehicle is injected into the subcutaneous tissue over the right calvaria of normal mice. Typically, the control vehicle is the vehicle in which the compound was solubilized, and is PBS containing 5% DMSO or is PBS containing Tween (2 μl/10 ml). The animals are sacrificed on day 14 and bone growth measured by histomorphometry. Bone samples for quantitation are cleaned from adjacent tissues and fixed in 10% buffered formalin for 24-48 hours, decalcified in 14% EDTA for 1-3 weeks, processed through graded alcohols; and embedded in paraffin wax. Three to five μm sections of the calvaria are prepared, and representative sections are selected for histomorphometric assessment of the effects on bone formation and bone resorption. Sections are measured by using a camera lucida attachment to trace directly the microscopic image onto a digitizing plate. Bone changes are measured on sections cut 200 μm apart, over 4 adjacent 1×1 mm fields on both the injected and noninjected sides of the calvaria. New bone is identified by its characteristic woven structure, and osteoclasts and osteoblasts are identified by their distinctive morphology. Histomorphometry software (OsteoMeasure, Osteometrix, Inc., Atlanta) is used to process digitizer input to determine cell counts and measure areas or perimeters.
The results are reported as a measurement of total bone area (and % increase in area over vehicle control), as shown below.

BMP-2 promoter = experiment: ABA assay: BMP-2 promoter-luciferase reporter in 2T3-BMP-2-LUC osteoblast cells; format: cell-based, mouse
Experimental: These transformed cells are then evaluated for the production of the reporter gene product; compounds that activate the BMP promoter will drive production of the reporter protein, which can be readily assayed.
The cells were cultured using α-MEM, 10% FCS with 1% penicillin/streptomycin and 1% glutamine (“plating medium”), and were split 1:5 once per week. For the assay, the cells were resuspended in a plating medium containing 4% FCS, plated in microtiter plates at a concentration of 5×10^3 cells (in 50 μl)/well, and incubated for 24 hours at 37° C. in 5% CO2. To initiate the assay, 50 μl of the test compound or the control in DMSO was added at 2× concentration to each well, so that the final volume was 100 μl. The final serum concentration was 2% FCS, and the final DMSO concentration was 1%.
The treated cells were incubated for 24 hours at 37° C. and 5% CO2. The medium was then removed, and the cells were rinsed three times with PBS. After removal of excess PBS, 25 μl of 1× cell culture lysing reagent (Promega #E153A) was added to each well and incubated for at least ten minutes. Optionally, the plates/samples could be frozen at this point. To each well was added 50 μl of luciferase substrate (Promega #E152A; 10 ml Promega luciferase assay buffer per 7 mg Promega luciferase assay substrate). Luminescence was measured on an automated 96-well luminometer, and was expressed as either picograms of luciferase activity per well or as picograms of luciferase activity per microgram of protein.
Alternatively, the reactivity of a compound to be tested can be compared directly to a negative control containing no compound.

CCC(C)(C)C(=O)O[C@H]1C[C@@H](C)C=C2C=C[C@H](C)[C@H](CC[C@@H]3C[C@@H](O)CC(=O)O3)[C@H]21 [Simvastatin, simvastatin]
New Bone Area (neonatal mouse calvaria; Experiment 1, 3 days): 8.5 mm^2 × 10^−3 | New Bone Area, % increase over vehicle control (neonatal mouse calvaria; Experiment 1, 3 days): 77% | Osteoblast Number (neonatal mouse calvaria; Experiment 1, 3 days): 156 Obs/field | Osteoblast Number, % increase over vehicle control (neonatal mouse calvaria; Experiment 1, 3 days): 63% | New Bone Area (neonatal mouse calvaria; Experiment 1, 7 days): 17.4 mm^2 × 10^−3 | New Bone Area, % increase over vehicle control (neonatal mouse calvaria; Experiment 1, 7 days): 123% | Osteoblast Number (neonatal mouse calvaria; Experiment 1, 7 days): 154 Obs/field | Osteoblast Number, % increase over vehicle control (neonatal mouse calvaria; Experiment 1, 7 days): 68% | New Bone Area (neonatal mouse calvaria; Experiment 2, 3 days): 15.4 mm^2 × 10^−3 | New Bone Area, % increase over vehicle control (neonatal mouse calvaria; Experiment 2, 3 days): 285% | Osteoblast Number (neonatal mouse calvaria; Experiment 2, 3 days): 154 Obs/field | Osteoblast Number, % increase over vehicle control (neonatal mouse calvaria; Experiment 2, 3 days): 70% | New Bone Area (neonatal mouse calvaria; combination study, IBN (1 μM), 59-0328 0.1 μM alone): 5.1 ± 0.49 mm^2 × 10^−3 | New Bone Area (neonatal mouse calvaria; combination study, IBN (1 μM), 59-0328 0.2 μM alone): 5.23 ± 0.89 mm^2 × 10^−3 | New Bone Area (neonatal mouse calvaria; combination study, IBN (10 μM), 59-0328 0.1 μM alone): 4.25 ± 0.59 mm^2 × 10^−3 | New Bone Area (neonatal mouse calvaria; combination study, IBN (10 μM), 59-0328 0.2 μM alone): 6.83 ± 1.54 mm^2 × 10^−3 | % increase in total bone area over vehicle control ([1]; 1 mg/kg/day): 2% | Total Bone Area ([1]; 1 mg/kg/day): 172 μm^2 | % increase in total bone area over vehicle control ([1]; 5 mg/kg/day): 20% | Total Bone Area ([1]; 5 mg/kg/day): 202 μm^2 | % increase in total bone area over vehicle control ([1]; 10 mg/kg/day): 46% | Total Bone Area ([1]; 10 mg/kg/day): 245 μm^2 | increase in the number of osteoblasts ([1]; mouse, in vivo): 1.5 fold | % 59-0008 Response (BMP-2 promoter; Experiment 1, 0.195312 μg/ml): 29.030% | % 59-0008 Response (BMP-2 promoter; Experiment 1, 0.390625 μg/ml): 38.210% | % 59-0008 Response (BMP-2 promoter; Experiment 1, 0.78125 μg/ml): 69.600% | % 59-0008 Response (BMP-2 promoter; Experiment 1, 1.5625 μg/ml): 99.170% | % 59-0008 Response (BMP-2 promoter; Experiment 1, 3.125 μg/ml): 135.610% | % 59-0008 Response (BMP-2 promoter; Experiment 1, 6.25 μg/ml): 141.970% | % 59-0008 Response (BMP-2 promoter; Experiment 1, 12.5 μg/ml): 131.300% | % 59-0008 Response (BMP-2 promoter; Experiment 1, 25 μg/ml): 148.310% | % 59-0008 Response (BMP-2 promoter; Experiment 1, 50 μg/ml): −22.950% | % 59-0008 Response (BMP-2 promoter; Experiment 1, 100 μg/ml): −23.010% | % 59-0008 Response (BMP-2 promoter; Experiment 1, 200 μg/ml): −22.960% | % 59-0008 Response (BMP-2 promoter; Experiment 2, 0.465820 μM, 0.195312 μg/ml): 0.310% | % 59-0008 Response (BMP-2 promoter; Experiment 2, 0.931640 μM, 0.390625 μg/ml): 2.600% | % 59-0008 Response (BMP-2 promoter; Experiment 2, 1.863281 μM, 0.78125 μg/ml): 6.820% | % 59-0008 Response (BMP-2 promoter; Experiment 2, 3.726562 μM, 1.5625 μg/ml): 19.670% | % 59-0008 Response (BMP-2 promoter; Experiment 2, 7.453125 μM, 3.125 μg/ml): 51.660% | % 59-0008 Response (BMP-2 promoter; Experiment 2, 14.90625 μM, 6.25 μg/ml): 104.640% | % 59-0008 Response (BMP-2 promoter; Experiment 2, 29.8125 μM, 12.5 μg/ml): 152.290% | % 59-0008 Response (BMP-2 promoter; Experiment 2, 59.625 μM, 25 μg/ml): 180.640% | % 59-0008 Response (BMP-2 promoter; Experiment 2, 119.25 μM, 50 μg/ml): 189.430% | % 59-0008 Response (BMP-2 promoter; Experiment 2, 238.5 μM, 100 μg/ml): 304.100% | % 59-0008 Response (BMP-2 promoter; Experiment 2, 477 μM, 200 μg/ml): 222.180%
